Assay results from patent publication US12336536B2, “Method for controlling herbicide resistant or tolerant weeds” (BASF Agro B.V., priority 2015, dated 2025).

How the values were obtained:
Assay in all cases: Greenhouse test, solo and combination, post-emergence, 20 DAT
LOLRI = type: in vivo, Lolium rigidum
Protocol: (§1) The test plants have been seeded, separately for each species, in plastic containers in sandy loamy soil containing 5% of organic matter.
(§2) For the post-emergence treatment, the plants were first grown to the 2 leaf station (GS 12) and applied at GS 12-19 depending on the species. The herbicidal compositions were suspended or emulsified in water as distribution medium and sprayed using finely distributing nozzles.
(§3) The plants have been cultivated due to their individual requirements at 10-25° C. and 20-35° C. The plants were irrigated due to their necessity.
(§4) The racemic mixture (±)-2-exo-(2-Methylbenzyloxy)-1-methyl-4-isopropyl-7-oxabicyclo[2.2.1]heptane was used as herbicide A and formulated as emulsifiable concentrate having an active ingredient concentration of 750 g/l.
(§5) Cyhalofop-butyl (herbicide B.5) was used as an emulsifiable concentrate (EC) formulation having an active ingredient concentration of 200 g/l.
(§6) Metsulfuron-methyl (herbicide B.53) was used as a water soluble granule (SG) formulation having an active ingredient concentration of 20%.
(§7) Bispyribac-sodium (herbicide B.23) was used as a soluble concentrate (SL) formulation having an active ingredient concentration of 408 g/l.
(§8) Quizalofop-P-ethyl (herbicide B.217) was used as a suspension concentrate (SC) formulation having an active ingredient concentration of 106 g/l.
(§9) In the following experiments, the herbicidal activity for the individual herbicide compounds (solo and mixture applications) was assessed 20 days after treatment (DAT).
(§10) The evaluation for the damage on undesired weeds caused by the chemical compositions was carried out using a scale from 0 to 100%, compared to the untreated control plants. Here, 0 means no damage and 100 means complete destruction of the plants.
(§11) The plants used in the greenhouse experiments belonged to the following species:
(§12) E=X+Y−(X·Y/100) • where X=effect in percent using herbicide A at an application rate a; • Y=effect in percent using herbicide B at application rate b; • E=expected effect (in %) of herbicide A+herbicide B at application rates a+b.
(§13) The value E corresponds to the effect (plant damage or injury) which is to be expected if the activity of the individual compounds is additive. If the observed effect is higher than the value E calculated according to the Colby equation, a synergistic effect is present.
(§14) Tables 3 to 6 below relate the herbicidal activity, in greenhouse trials, of the individual actives and the combination applied at different rates and ratios, in post-emergence application at 20 days after treatment (DAT).

BRSNW = type: in vivo, Brassica napus
Protocol: as §1, §2, §3, §4, §5, §6, §7, §8, §9, §10, §11, §12, §13, §14

BROST = type: in vivo, Bromus sterilis
Protocol: as §1, §2, §3, §4, §5, §6, §7, §8, §9, §10, §11, §12, §13, §14

GALAP = type: in vivo, Galium aparine
Protocol: as §1, §2, §3, §4, §5, §6, §7, §8, §9, §10, §11, §12, §13, §14

ALOMY = type: in vivo, Alopecurus myosuroides
Protocol: as §1, §2, §3, §4, §5, §6, §7, §8, §9, §10, §11, §12, §13, §14

MATIN = type: in vivo, Matricaria inodora
Protocol: as §1, §2, §3, §4, §5, §6, §7, §8, §9, §10, §11, §12, §13, §14

PAPRH = type: in vivo, Papaver rhoeas
Protocol: as §1, §2, §3, §4, §5, §6, §7, §8, §9, §10, §11, §12, §13, §14

Which results are given for `CCOC(=O)[C@@H](C)Oc1ccc(Oc2cnc3cc(Cl)ccc3n2)cc1` [quizalofop-P-ethyl]?
Herbicidal activity (LOLRI; solo application 15 g ai/ha): 80%; Herbicidal activity (LOLRI; solo application 30 g ai/ha): 95%; Herbicidal activity (BRSNW; solo application 120 g ai/ha): 0%; Herbicidal activity (BROST; solo application 15 g ai/ha): 15%; Herbicidal activity (BROST; solo application 30 g ai/ha): 50%; Herbicidal activity (BROST; solo application 60 g ai/ha): 80%; Herbicidal activity (BROST; solo application 120 g ai/ha): 95%; Herbicidal activity (GALAP; solo application 15 g ai/ha): 0%; Herbicidal activity (GALAP; solo application 30 g ai/ha): 0%; Herbicidal activity (ALOMY; solo application 15 g ai/ha): 60%; Herbicidal activity (ALOMY; solo application 30 g ai/ha): 65%; Herbicidal activity (ALOMY; solo application 120 g ai/ha): 85%; Herbicidal activity (MATIN; solo application 15 g ai/ha): 0%; Herbicidal activity (MATIN; solo application 30 g ai/ha): 0%; Herbicidal activity (MATIN; solo application 60 g ai/ha): 10%; Herbicidal activity (PAPRH; solo application 15 g ai/ha): 25%

How did the Herbicidal activity (LOLRI; solo application 12.5 g ai/ha) turn out when `CCCCOC(=O)[C@@H](C)Oc1ccc(Oc2ccc(C#N)cc2F)cc1` [cyhalofop-butyl] was run?
Its Herbicidal activity is 25%.

And the Herbicidal activity (BRSNW; solo application 100 g ai/ha)?
Its Herbicidal activity is 0%.

And the Herbicidal activity (BROST; solo application 100 g ai/ha)?
The Herbicidal activity was 0%.

And the Herbicidal activity (GALAP; solo application 50 g ai/ha)?
Its Herbicidal activity is 0%.

What about the Herbicidal activity (GALAP; solo application 100 g ai/ha) of the same compound?
Its Herbicidal activity is 0%.

What about the Herbicidal activity (ALOMY; solo application 25 g ai/ha) of the same compound?
The Herbicidal activity was 5%.

And the Herbicidal activity (ALOMY; solo application 50 g ai/ha)?
Its Herbicidal activity is 20%.

What about the Herbicidal activity (MATIN; solo application 100 g ai/ha) of the same compound?
Its Herbicidal activity is 0%.

What about the Herbicidal activity (PAPRH; solo application 12.5 g ai/ha) of the same compound?
The Herbicidal activity was 0%.

And the Herbicidal activity (PAPRH; solo application 50 g ai/ha)?
The Herbicidal activity was 0%.

What does the source list for `COc1cc(OC)nc(Oc2cccc(Oc3nc(OC)cc(OC)n3)c2C(=O)O)n1` [bispyribac-sodium]?
Herbicidal activity (LOLRI; solo application 60 g ai/ha): 5%; Herbicidal activity (BRSNW; solo application 15 g ai/ha): 98%; Herbicidal activity (GALAP; solo application 15 g ai/ha): 40%; Herbicidal activity (GALAP; solo application 30 g ai/ha): 65%; Herbicidal activity (GALAP; solo application 120 g ai/ha): 95%; Herbicidal activity (ALOMY; solo application 30 g ai/ha): 0%; Herbicidal activity (ALOMY; solo application 60 g ai/ha): 0%; Herbicidal activity (MATIN; solo application 60 g ai/ha): 85%; Herbicidal activity (MATIN; solo application 120 g ai/ha): 90%; Herbicidal activity (PAPRH; solo application 15 g ai/ha): 0%; Herbicidal activity (PAPRH; solo application 60 g ai/ha): 50%; Herbicidal activity (PAPRH; solo application 120 g ai/ha): 50%
